Laboratory results: US5750538A, “Method of treating hypercholesterolemia and related disorders” (Novo Nordisk A/S, priority 1996, dated 1998)
pIC50: −log10 of the molar value.

Target: T1, squalene synthetase (Rattus norvegicus, UniProt Q02769)
T1 construct: Rat liver microsomal preparation; from tissue; host or cells: liver microsomes of male rats (100,000 x g pellet)
T1 sequence (Q02769 1-416): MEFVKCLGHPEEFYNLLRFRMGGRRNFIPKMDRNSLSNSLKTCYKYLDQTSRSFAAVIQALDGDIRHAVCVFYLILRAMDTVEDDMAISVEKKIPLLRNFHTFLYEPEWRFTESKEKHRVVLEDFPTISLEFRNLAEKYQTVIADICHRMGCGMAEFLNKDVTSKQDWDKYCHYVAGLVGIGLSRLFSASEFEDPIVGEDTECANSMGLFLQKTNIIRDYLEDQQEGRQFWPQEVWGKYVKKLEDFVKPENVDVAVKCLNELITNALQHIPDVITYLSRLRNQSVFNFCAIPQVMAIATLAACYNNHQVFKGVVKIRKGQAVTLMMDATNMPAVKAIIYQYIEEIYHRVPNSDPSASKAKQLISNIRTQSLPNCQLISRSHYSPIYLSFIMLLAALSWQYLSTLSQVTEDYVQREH
Experiment: Squalene synthetase inhibition assay in vitro (rat liver microsomal preparation, 3H-FPP)
Format: biochemical
Details: rat liver microsomal enzyme, 3H-FPP 10 μM final conc.; for SQUALENE SYNTHETASE INHIBITION % max: maximal inhibition; for pIC50: 10 min incubation at 37° C.
Method: Squalene synthease inhibition assay in vitro
a) Rat liver microsomal preparation
Male rats weighing 200 to 300 g were decapitated and the liver removed and placed in 10 ml icecold 0.25M sucrose, 2 mM EDTA and 50 mM Tris, HCl buffer pH 7.4. The liver was homogenized in 3×volume buffer relative to weight using a glass teflon Potter-Elvehjem homogenizer set to 1000 rpm.
The homogenate was then centrifuged for 15 min. at 12,000×g at 4° C. The resultant supernatant was gently decanted into 10 ml ultracentrifuge vials and treated at 100,000×g for 60 min. at 4° C. The microsomal pellet was resuspended in a final volume of 1 ml icecold 0.1M phosphate buffer pH 7.4 per gram liver tissue by gentle homogenization in a glass Potter-Elvehjem at 800 rpm. Aliquots of 0.5 ml (approx. 20 mg/ml protein) was stored at -80° C. until further use in the squalene synthetase inhibition assay.
To begin the assay, 20 μl of the compound of this invention or vehicle solution is added to each 16×150 screw-cap culture tube on ice. Then 580 μl of N2 flushed assay buffer is pipetted into each tube. 100 μl of cofactor is next added to each tube, followed by 1 00 μl of a dilution of microsomal enzyme (approximately 80 μg protein). The tubes are preincubated for 10 min. at 37° C., and 200 μl of the ^3 H-FPP (200,000 dpm, 10 μM final conc.) is added to each tube at two second intervals. The tubes are then incubated for exactly 10 min., shaking at 150 oscillations per min. After the 10 min. incubation, the reaction is stopped by the addition of 1 ml of 15% KOH in ethanol, and the tubes are incubated for 30 min. in a 65° C. water bath for saponification of lipids and solubilization of proteins. The tubes are cooled on ice for five min. The samples are next extracted with 5 ml of petroleum ether by shaking for 10 min. at low speed on a metabolic shaker. Each lower aqueous layer is frozen in a dry ice/alcohol bath (2-propanol/methanol, 1:1), and each organic layer is poured into another set of 16 ×150 screw-top culture tubes containing 2 ml of deionized water. Each ether layer is washed by vortexing each tube for 5 sec. The aqueous layers are again frozen in the dry ice/alcohol bath, and the ether is poured into scintillation vials. 10 ml of AquaSol® is next added to each vial, and the vials are counted for 5 min. in a scintillation counter. Percent inhibitions are calculated from the counts obtained.

| SMILES | SQUALENE SYNTHETASE INHIBITION % max [%] | pIC50 |
| --- | --- | --- |
| CCCCCCCSc1nsnc1C1CN2CCC1CC2 (centres unmarked) | 92 | 6.05 |
| c1ccc(CCCSc2nsnc2C2CN3CCC2CC3)cc1 (centres unmarked) | 89 | 6.05 |
| c1ccc(Oc2ccc(COc3nsnc3C3CN4CCC3CC4)cc2)cc1 (centres unmarked) | 83 | 6.52 |
| c1ccc(-c2ccc(COc3nsnc3C3CN4CCC3CC4)cc2)cc1 (centres unmarked) | 60 | 5.41 |
| c1ccc(CCCSc2nsnc2[C@H]2CN3CC[C@@H]2C3)cc1 (relative stereo) | 55 | 4.91 |
| c1ccc(CCCSc2nsnc2[C@H]2CN3CCC[C@@H]2C3)cc1 (single isomer, unassigned) | 72 | 5.29 |
| c1ccc(CCCSc2nsnc2[C@@H]2CN3CCC[C@@H]2C3)cc1 (single isomer, unassigned) | 80 | 5.96 |
